Measured values from patent publication US9682966B2, “Kappa opioid ligands” (The Scripps Research Institute, priority 2012, dated 2017).

Target: kappa opioid receptor (OPRK1) (Homo sapiens (Human), UniProt P41145)
Experiment: OPRK1 antagonist assay (b-arrestin-2-TEV / b-lactamase reporter, EC80 U-50488 challenge)
Format: cell-based
Details: for IC50: OPRK1 antagonist assay vs EC80 U-50488

Sequence of kappa opioid receptor (OPRK1) (P41145 whole entry): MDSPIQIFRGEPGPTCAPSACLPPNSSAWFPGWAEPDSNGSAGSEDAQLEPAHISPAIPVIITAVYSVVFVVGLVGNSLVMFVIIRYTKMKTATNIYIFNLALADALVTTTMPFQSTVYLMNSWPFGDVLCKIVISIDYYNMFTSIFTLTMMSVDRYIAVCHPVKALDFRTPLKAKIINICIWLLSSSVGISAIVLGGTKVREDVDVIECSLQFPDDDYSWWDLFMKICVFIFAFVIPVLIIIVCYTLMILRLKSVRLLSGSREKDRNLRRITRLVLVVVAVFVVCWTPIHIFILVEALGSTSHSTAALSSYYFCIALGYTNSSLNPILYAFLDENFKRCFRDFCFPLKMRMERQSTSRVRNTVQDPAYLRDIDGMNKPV

Cc1ccc2nc(N3CCC(NC[C@@H](C)O)CC3)c(-c3noc(C)n3)cc2c1 [compound 423]
IC50: 191 nM

CCc1noc(-c2cc(C)cnc2N2CCC(NC3CCCCC3)C(OC)C2)n1 (stereo not drawn) [compound 391]
IC50: 105 nM

Cc1ccc2nc(N3CCC(NC4CCCCCC4)CC3)c(-c3nc(C)no3)cc2c1 [compound 367]
IC50: 2 nM

O[C@@H]1CCCC[C@H]1NC1CCN(c2ccc(Cl)cn2)CC1 [C12]
IC50: > 10000 nM

COC(=O)c1cc(Br)cnc1N1CCC(NC2CCCCC2)(C(=O)OC)CC1 [C21]
IC50: > 10000 nM

COC(=O)c1cc(Br)cnc1N1CCC(CN)CC1 [C16]
IC50: > 10000 nM

Cc1noc(-c2cc(C)c(C)nc2N2CCC(NCC(C)C)CC2)n1 [compound 394]
IC50: 161 nM

O=C(c1ccccc1)N1CCC(N[C@@H]2CCCC[C@H]2O)CC1 [C10]
IC50: > 10000 nM

Cc1ccc2nc(N3CCC(NC4(C)CCOCC4)CC3)c(-c3noc(C)n3)cc2c1 [compound 417]
IC50: 105 nM

Cc1ccc2nc(N3CCC(NC4CCCCC4)CC3)c(-c3ccc(C)nn3)cc2c1 [compound 438]
IC50: 75 nM

Cc1ccc2nc(N3CCC(NCC(C)(C)O)CC3)c(-c3noc(C)n3)cc2c1 [compound 412]
IC50: 476 nM

CCC(CC)C(=O)NC1CCN(c2nc3ccc(C)cc3cc2-c2nc(C)no2)CC1 [C78]
IC50: > 10000 nM

COC(=O)c1cc(Br)cnc1N1CCC(N2CCOCC2)CC1 [C5]
IC50: > 10000 nM

Cc1ccc2nc(N3CCC(NC(C)CC(C)C)CC3)c(-c3nc(C)no3)cc2c1 (stereo not drawn) [C72]
IC50: > 10000 nM

Cc1ccc2nc(N3CCC(NC4CCCCCC4)CC3)c(-c3noc(C)n3)cc2c1 [compound 415]
IC50: 3 nM

CN(C)C(=O)c1cc(Br)cnc1N1CCC(NC2CCCCC2)CC1 [C19]
IC50: > 10000 nM

CCOC(=O)c1cc(C(N)=O)c(C)nc1N1CCC(NC2CCCCC2)CC1 [C28]
IC50: > 10000 nM

CO[C@@H]1CN(c2ncc(C)cc2-n2ccc(C)n2)CC[C@@H]1NC1CCCCC1 [compound 383]
IC50: 1160 nM

COC1CN(c2nc3c(C)cc(C)cc3cc2-c2nc(C)no2)CCC1NCC(C)C (stereo not drawn) [compound 365]
IC50: 8 nM

CO[C@H]1CN(c2nc3ccc(C)cc3cc2-c2ccc(C)nn2)CC[C@H]1NC1CCCCC1 [compound 439]
IC50: 231 nM

CCc1noc(-c2cc3cc(C)ccc3nc2N2CC[C@@H](NC3CCCCC3)[C@H](O)C2)n1 [compound 335]
IC50: 113 nM

COC(=O)c1cc(Br)cnc1N1CCC(Nc2ccccc2)CC1 [C7]
IC50: > 10000 nM

Cc1ccc2nc(N3CCC(NC4CCCOC4)CC3)c(-c3noc(C)n3)cc2c1 (stereo not drawn) [compound 419]
IC50: 2 nM

CCC(CC)NC1CCN(c2nc3ccc(F)cc3cc2-c2noc(C)n2)CC1 [compound 490]
IC50: 248 nM

Cc1noc(-c2cc3cc(C)c(C)cc3nc2N2CCC(NC3CCOCC3)CC2)n1 [C90]
IC50: > 10000 nM

CO[C@H]1CN(c2nc(C)ccc2-c2ccc(C)nn2)CC[C@H]1NC1CCCCC1 [compound 426]
IC50: 1970 nM

COC1CN(c2ncc(C)cc2-c2cc(C)no2)CCC1NC1CCCCC1 (stereo not drawn) [compound 380]
IC50: 128 nM

Cc1cnc(N2CCC(NCC(C)C)CC2)c(-c2nc(C)no2)c1 [compound 393]
IC50: 346 nM

COC(=O)c1cnc(N2CCC(NC3CCCCC3)C(O)C2)c(Br)c1 (stereo not drawn) [compound 103]
IC50: 137 nM

COC(=O)c1cc(Br)cnc1N1CCC(N)CC1 [C1]
IC50: > 10000 nM

COC1CN(c2ncc(C)cc2-n2ccc(C)n2)CCC1NC1CCCCC1 (stereo not drawn) [compound 358]
IC50: 9 nM

CCc1cnc(N2CCC(NC3CCCCC3)C(OC)C2)c(-c2nc(C)no2)c1 (stereo not drawn) [compound 379]
IC50: 525 nM

COC(=O)c1cc(NS(C)(=O)=O)cnc1N1CCC(NC2CCCCC2)CC1 [C30]
IC50: > 10000 nM

CCOC(=O)CCNC1CCN(c2nc3ccc(C)cc3cc2-c2nc(C)no2)CC1 [compound 407]
IC50: 341 nM

COC(=O)c1cc(NC(=O)C(C)(C)C)cnc1N1CCC(NC2CCCCC2)CC1 [C37]
IC50: > 10000 nM

CO[C@@H]1CN(c2nc3ccccc3nc2-c2nc(C)no2)CC[C@@H]1NC1CCCCC1 [compound 334]
IC50: 161 nM

CO[C@H]1CN(c2nc3c(C)cc(C)cc3cc2-c2nc(C)no2)CC[C@H]1NC1CCCCC1 [compound 362]
IC50: 3 nM

Cc1nc(-c2c(N3CCC(NC4CCOCC4)CC3)nc3ccccc3c2C)no1 [compound 447]
IC50: 1150 nM

Cc1ccc2nc(NCCCNC3CCOCC3)c(-c3nc(C)no3)cc2c1 [C85]
IC50: > 10000 nM

COCCOC(=O)c1cc(Br)cnc1N1CCC(NC2CCCCC2)CC1 [C31]
IC50: > 10000 nM

COC(=O)c1ccc(C(F)(F)F)nc1N1CCC(NC2CCCCC2)CC1 [C24]
IC50: > 10000 nM

Cc1ccc2nc(N3CCC(NC(=O)C4CCCCC4)CC3)c(-c3nc(C)no3)cc2c1 [C77]
IC50: > 10000 nM

CC(=O)c1cc(C2CC2)cnc1N1CC[C@@H](NC2CCCCC2)[C@H](O)C1 [C62]
IC50: > 10000 nM

CO[C@@H]1CN(c2nc(C)c(C)cc2-c2nc(C)no2)CC[C@@H]1NC1CCCCC1 [compound 342]
IC50: 48 nM

FC(F)(F)c1cc(Br)cnc1N1CCC(NC2CCCCC2)CC1 [C25]
IC50: > 10000 nM

Cc1ccc2nc(N3CCC(NC4CCC[C@@H]4O)CC3)c(-c3ccc(C)nn3)cc2c1 (stereo partly drawn) [compound 444]
IC50: 634 nM

COC(=O)c1cc(Br)cnc1N1CCC(NCCO)CC1 [compound 6]
% inhib if other than 50% (% inhibition to which the printed IC50 value refers, if other than 50%): 80%

Cc1cc(-c2noc(C)n2)c(N2CCC(NCC(C)C)CC2)nn1 [compound 431]
IC50: 22 nM

Cc1ccc2nc(N3CCC(C)(NC4CCOCC4)CC3)c(-c3nc(C)no3)cc2c1 [C74]
IC50: > 10000 nM

CCc1ccc(-c2cc3cc(C)ccc3nc2N2CCC(NC3CCCC[C@@H]3O)CC2)nn1 (stereo partly drawn) [compound 454]
IC50: 783 nM

COC(=O)c1cc(C2=CCCCC2)cnc1N1CCC(NC2CCCCC2)CC1 [C17]
IC50: > 10000 nM

Cc1nc(-c2c(N3CCC(NCC(C)C)CC3)nc3ccccc3c2C)no1 [compound 448]
IC50: 226 nM

COC(=O)c1cc(Br)cnc1N1CCC(NCc2ccccc2OC)CC1 [C23]
IC50: > 10000 nM

COC(=O)c1cc(NC(=O)CCN(C)C)cnc1N1CCC(NC2CCCCC2)CC1 [C33]
IC50: > 10000 nM

COC(=O)c1cc(Br)cnc1N1CCC(N2CCN(C)CC2)CC1 [C8]
IC50: > 10000 nM

CCO/N=C/c1cc2cc(C)ccc2nc1N1CCC(NC2CCCCC2)CC1 [compound 460]
IC50: 141 nM

Cc1ccc2nc(N3CCC(NC(=O)OC(C)(C)C)CC3)c(-c3nc(C)no3)cc2c1 [C71]
IC50: > 10000 nM

CO[C@H]1CN(c2nc3ccccc3cc2-c2ccc(C)nn2)CC[C@H]1NC1CCCCC1 [compound 344]
IC50: 16.8 nM

CC(=O)c1cc(-c2ccccc2)cnc1N1CCC(NC2CCCCC2)C(CO)C1 (stereo not drawn) [C64]
IC50: > 10000 nM

COC(=O)c1cc(Br)cnc1N1CCC(NCc2ccccc2O)CC1 [C22]
IC50: > 10000 nM

CO[C@H]1CN(c2ncc(C)cc2-c2nc(C)no2)CC[C@H]1N(C1CCCC1)C1CCCC1 [compound 339]
IC50: 29 nM

Cc1ccc2nc(N3CCCC(NC4CCCCC4)CC3)c(-c3nc(C)no3)cc2c1 (stereo not drawn) [C80]
IC50: > 10000 nM

Cc1cc(-c2noc(C)n2)c(N2CCC(NC3CCCCC3)CC2)nn1 [compound 420]
IC50: 3 nM

CO/N=C/c1cc2cc(C)ccc2nc1N1CCC(NC2CCCCC2)CC1 [compound 459]
IC50: 15 nM

Cc1noc(-c2ccc(CO)nc2N2CCC(NC3CCCCC3)CC2)n1 [compound 428]
IC50: 101 nM

CO[C@@H]1CN(c2ncc(C)cc2-c2nc(C)no2)CC[C@@H]1NC1CCCC1 [compound 345]
IC50: 104 nM
